Columns and labels:
Format in all cases: functional, Homo sapiens
Set-up in all cases: dose or concentration left out as unconfirmed
[1] = system: Colon cancer organoid; assay: Identification of compartment-specific drug sensitivities in O14 CRC organoid-stroma F14 CAF co-cultures. Organoid is transduced with Lucferase2-P2A-EGFP lentivirus, fibroblast with Renilla-dsRed lentivirus. Dual-Glo Luciferase assay is used to report viability data.
[2] = system: Colon cancer organoid; assay: Identification of compartment-specific drug sensitivities in O06 CRC organoid-stroma F06 CAF co-cultures. Organoid is transduced with Lucferase2-P2A-EGFP lentivirus, fibroblast with Renilla-dsRed lentivirus. Dual-Glo Luciferase assay is used to report viability data.
[3] = system: Colon cancer organoid; assay: Identification of compartment-specific drug sensitivities in O20 CRC organoid-stroma F20 CAF co-cultures. Organoid is transduced with Lucferase2-P2A-EGFP lentivirus, fibroblast with Renilla-dsRed lentivirus. Dual-Glo Luciferase assay is used to report viability data.
[4] = Transduced with Lucferase2-P2A-EGFP lentivirus
[5] = Transduced with Renilla-dsRed lentivirus

| SMILES | Cell Viability [1, 4] [%] | Cell Viability [1, 5] [%] | Cell Viability [2, 4] [%] | Cell Viability [2, 5] [%] | Cell Viability [3, 4] [%] | Cell Viability [3, 5] [%] |
| --- | --- | --- | --- | --- | --- | --- |
| C=CC(=O)N1CCC([C@@H]2CCNc3c(C(N)=O)c(-c4ccc(Oc5ccccc5)cc4)nn32)CC1 [ZANUBRUTINIB] | 25.5759 | 117.13 | 36.1998 | 136.235 | 8.4337 | 202.782 |
| Cc1ccc(NC(=O)Nc2cc(C(F)(F)F)ccc2F)cc1Nc1ccc2c(c1)NC(=O)/C2=C\c1ccc[nH]1 | 123.441 | 77.7474 | 46.1941 | 95.0963 | 98.8429 | 67.3177 |
| CNC(=O)Nc1ccc(-c2nc(N3CC4CCC(C3)O4)c3cnn(C4CCC5(CC4)OCCO5)c3n2)cc1 | 29.4838 | 39.9364 | 4.885 | 48.532 | 5.83 | 97.6391 |
| CCNC(=O)c1cc2c(N3CCOCC3C)ccnc2[nH]1 (stereo not given) | 143.994 | 130.326 | 130.766 | 119.513 | 144.452 | 100.256 |
| CC(=O)C1=C(C)N(c2cccc(C(F)(F)F)c2)C(=O)N[C@H]1c1ccc(C#N)nc1 [BAY-677] | 123.312 | 108.035 | 73.3465 | 89.4043 | 134.265 | 107.791 |
| COc1ccc2c(O[C@@H]3C[C@H]4C(=O)N[C@]5(C(=O)O)CC5/C=C\CCCCC[C@H](NC(=O)OC5CCCC5)C(=O)N4C3)cc(-c3csc(NC(=O)C(C)C)n3)nc2c1C (stereo not given in full) [BI 1230] | 146.11 | 113.81 | 110.189 | 125.746 | 95.5192 | 162.279 |
| C[C@@H]1CCNC(=O)c2cc3ccc(C(=O)Nc4nc5ccccc5n4CCCN(C)C)cc3n21 | 75.4357 | 82.3994 | 65.6776 | 63.6239 | 65.8011 | 147.158 |
| COc1ccccc1C(=O)Nc1cc2c(cc1N1CCNCC1C)n(C)c(=O)n2C (stereo not given) | 118.564 | 101.199 | 112.155 | 138.916 | 131.273 | 107.173 |
| O=C(Nc1cccnc1)c1cc(-c2ccnc(F)c2)ccc1OCc1ccccc1 | 142.728 | 107.033 | 87.3368 | 83.1264 | 125.357 | 104.766 |
| CCC(=O)N[C@H]1CC[C@@H](C(=O)N(C)c2ccc(-c3nc4ccccc4o3)cc2)C1 [BI 99179] | 77.0742 | 106.772 | 14.7827 | 191.434 | 33.9891 | 149.12 |
| CN(C)CCCOc1ccc(-c2cc(NCCCn3cccn3)nc(S(C)(=O)=O)n2)cc1 | 139.487 | 89.5427 | 126.468 | 129.443 | 144.942 | 126.832 |
| CCOC(=O)c1c(/C(C#N)=C\N)c2ccc(Cl)c(Cl)c2n1C | 89.9628 | 62.6784 | 122.99 | 97.4073 | 91.9928 | 87.4636 |
| C[C@H]1CC(=O)Nc2cc(C(=O)NCCC3CC3)ccc2N1C(=O)N1CC2CC2C1 (stereo not given in full) | 144.576 | 93.1136 | 115.835 | 132.849 | 106.68 | 112.87 |
| O=C1c2ccc(Nc3ccc(F)cc3F)cc2CCc2ccc(OC[C@H](O)CO)cc21 [Skepinone-L] | 166.491 | 75.8508 | 115.343 | 88.0925 | 88.6485 | 86.6611 |
| O=C(/C=C/N1C[C@H]2C[C@@H]1CN2c1ccccn1)c1ccccc1O | 104.919 | 81.7789 | 122.112 | 121.159 | 99.3831 | 109.392 |
| COc1ccccc1-c1cc(Nc2cccc(CS(N)(=O)=O)c2)ncn1 | 188.969 | 77.1823 | 105.6 | 95.8866 | 105.142 | 97.4583 |
| Cl.Cl.NC1(c2ccc(-c3nc4ccn5c(=O)[nH]nc5c4cc3-c3ccccc3)cc2)CCC1 | 76.882 | 55.4067 | 59.9467 | 67.7481 | 44.0229 | 145.22 |
| C[C@@H](Oc1cc(-n2cnc3ccc(CN4CCN(C)CC4)cc32)sc1C(N)=O)c1ccccc1C(F)(F)F [GSK-461364] | 14.2355 | 96.4779 | 8.2073 | 127.3 | 35.9092 | 141.481 |
| C[C@H](NC(=O)Nc1cc2[nH]ncc2c(CO)n1)c1ccccn1 [ERKi-NC] | 81.1185 | 100.943 | 94.8975 | 86.1568 | 108.541 | 124.126 |
| CCN(CCO)CCCOc1ccc2c(Nc3cc(CC(=O)Nc4cccc(F)c4)[nH]n3)ncnc2c1 [DEFOSBARASERTIB] | 12.9014 | 101.396 | 9.138 | 166.163 | 5.365 | 225.013 |
| CCn1c(-c2nc3cc(C(=O)N4CCCC(N)C4)ccc3n2C)cc2ccccc21.Cl (stereo not given) | 132.628 | 112.241 | 115.054 | 117.733 | 133.825 | 136.72 |
| Cc1nc(-c2cn3c(n2)-c2ccc(-c4cnn(C(C)(C)C(N)=O)c4)cc2OCC3)n(C(C)C)n1 [TASELISIB] | 38.4959 | 67.2929 | 42.3556 | 62.2904 | 15.8824 | 146.008 |
| CC#CC(=O)N1CCC[C@H]1c1nc(-c2ccc(C(=O)Nc3ccccn3)cc2)c2c(N)nccn12 [ACALABRUTINIB] | 75.641 | 83.8473 | 96.562 | 83.4698 | 96.3915 | 99.9657 |
| C[C@@H]1CN(c2cc(-c3nn(C)c4ccc(OC5(C)CC5)cc34)ncn2)C[C@H](C)O1 [MLi-2-NC] | 144.766 | 104.291 | 55.8067 | 87.1439 | 112.711 | 86.6644 |
| CC[C@H](CC(=O)O)n1c(=O)c2ncccc2n(Cc2cn(C)c3cc(C)cc(C)c23)c1=O [BI-1942] | 102.331 | 109.089 | 119.907 | 136.619 | 108.303 | 100.799 |
